Measurements as given in patent US20250221953A1 (The University of Chicago, priority 2022, published 2025).

Key:
[1] = test system: human CD8^+ T cells; assay: KAS-seq, human CD8+ T cells; format: cell-based; details: 20 μM TVA, 20 min-2 h
Experimental: 500 mM N3-kethoxal was then supplemented into the media followed by brief, vigorous shaking to fully homogenize the solution. The 6-well plates were then moved into the cell incubator (37° C., 5% CO2) for 10 minutes to promote labeling of genomic single-stranded DNA (ssDNA). Cell suspensions were then transferred to 15 mL conical tubes and centrifuged at 300×g for 5 minutes at 4° C. The supernatant media was discarded, and genomic DNA was then extracted. […] Dual index libraries were constructed for high throughput sequencing using an Accel-NGS Methyl-seq DNA library kit and then sequenced at the Genomics Facility (University of Chicago) via Illumina NovaSeq 6000 (SP flowcell, 100 bp cassette) in two separate runs. […] M. musculus and H. sapiens CD8^+ T cell KAS-seq data were assessed separately.

[2] = test system: primary CD4^+ T cells; assay: In vitro function of activated mouse primary CD4+ T cells; format: cell-based; details: TVA treatment in vitro
[3] = test system: B16F10 tumor; assay: Mouse tumor model, B16F10; format: in vivo; details: B16F10 tumor-bearing C57BL/6 mice on enriched diet vs control diet
Experimental: For C57BL/6 mice and TCR-a KO mice tumor model, mice were anesthetized with isoflurane, shaved the injection site, and then injected subcutaneously in the abdominal flank with 1×10^5 B16F10, MC38, or LLC1 cells, or in the mammary gland with 2×10^5 E0771 cells. C57BL/6 nude mice were injected subcutaneously in the abdominal flank with 1×10^5B16F10 cells. […] Tumors were measured the tumors using a caliper every 2-3 days. Tumor volumes were calculated using the following formula: length×width×[(length×width)^0.5]×π/6. Mice were euthanized at humane endpoints or day 11-15 for tissue collection.
The mice were treated once a day for 5 consecutive days per week for 2 weeks. Tumors were measured the tumors using a caliper every 2-3 days. Tumor volumes were calculated using the following formula: length×width×[(length×width)^0.5]×π/6. Mice were euthanized at humane endpoints.
For anti-PD-1 treatment mouse model, 6-8 weeks old C57BL/6 mice were anesthetized with isoflurane, shaved the injection site, and then injected subcutaneously in the abdominal flank with 1×10^5 B16F10 for tumor development. […] In day 3, 6, 9, 12, and 15, 250 μg anti-PD-1 (BioXCell) or IgG control (BioXCell) was injected intraperitoneally per mouse. Tumors were measured the tumors using a caliper every 2-3 days. Tumor volumes were calculated using the following formula: length×width×[(length×width)^0.5]×π/6. […]

[4] = test system: tumor-infiltrating CD8^+ T cells
Experimental: After incubation at 37° C. for 25 min on a shaking platform, the digested tumor tissues were transferred into a 70 μm mesh nylon strainer on a 50 mL conical tube, pushed through the strainer using the rubber end of a syringe plunger, and rinsed with the recommended medium. After centrifugation at 300×g for 10 min at room temperature with the brake on low, the resulting cell pellets were added 10 mL of ammonium chloride solution for incubation at room temperature for 5 minutes, followed by centrifugation at 300×g for 10 minutes at room temperature with the brake on low.
Freshly excised mouse tumor tissues were minced into small pieces (volume smaller than 1 mm^3) by scissors in PBS, digested by Collagenase IV (1 mg/mL) and DNase I (200 U/mL) at 37° C. for 20 minutes in PBS with gentle rocking. The digested tumor tissues were added 5 times volume 0.01M EDTA, filtered into new tube through 200 mesh screen (100 μm strainer), and then centrifuged at 300×g for 5 minutes at room temperature. The resulting cell pellets were re-suspended with 3 mL PBS, laid gently on 3 mL lymphocytes isolation liquid (pre-warmed to room temperature), and subjected to density gradient centrifugation (300×g, 30 minutes, room temperature, accelerate 6, decelerate 2). The middle layer of cells was moved carefully to a new tube, added PBS to 15 mL, and centrifuged (300×g, 10 minutes, room temperature). The cell pellets (lyse red cells if necessary) were designated tumor-infiltrating lymphocytes and used for following experiments.
Mouse spleens were disrupted with syringe plunger in 1 mL PBS in a 40 μm strainer filtered to a 15 mL tube, washed with PBS and centrifuged at 300×g for 5 minutes. The resulting cell pellets were re-suspended the with 2 mL red cell lysis buffer (Invitrogen), incubated at room temperature for 10 minutes, and centrifuged at 300×g for 5 minutes after adding 13 mL PBS. The resulting cell pellets was designated splenocytes and used for following experiments.
Draining lymph nodes were disrupted with syringe plunger in 1 mL PBS in a 40 μm strainer filtered to a 15 mL tube, washed with PBS, and centrifuged at 300×g for 5 minutes. The resulting cell pellets was designated LN Lymphocytes and used for following experiments.
Mouse primary cells isolated from tumor, spleen, draining lymph node were stained with fluorescent antibodies and analyzed by flow cytometry.
For experiments with live/dead criteria, cells were first stained with Fixable Viability Dyes (FVD) (Thermo Fisher Scientific) according to the manufacturer's instructions. Subsequent surface marker staining was performed in Flow Cytometry Staining Buffer (Thermo Fisher Scientific). Intracellular staining for flow panels containing nuclear proteins was performed using the eBioscience FoxP3/Transcription Factor Staining Buffer Set (Thermo Fisher Scientific) according to the manufacturer's instructions. For intracellular staining of cytoplasmic proteins, the Fixation/Permeabilization Solution Kit (BD Biosciences) was used according to the manufacturer's instructions.
For phospho antibody staining, cells were incubated with FVD (cell viability dye) for 15 minutes at room temperature in a tube, re-suspended with 200 μL pre-warmed 1×BD Phosflow Lyse/Fix buffer directly into the tube, and incubated at 37° C. for 10-15 minutes, followed by centrifugation at 300×g for 5 minutes. The resulting cell pellets were washed once with FACS buffer, permeabilized with 200 μL of BD Phosflow Perm Buffer III for 45 minutes on ice, and centrifuged at 300×g for 5 minutes.

CCCCCC/C=C/CCCCCCCCCC(=O)O [TVA, trans-vaccenic acid]
GO enrichment of altered gene bodies (KAS-seq) [1]: G-protein coupled receptor (GPCR) activities among the top-enriched ontologies
IL-2 production of primary CD4+ T cells [2]: increased IL-2 production
TNF-α, IFN-γ and apoptosis of primary CD4+ T cells [2]: non-altered expression of TNF-α and IFN-γ or apoptosis
body weights of mice [3]: did not alter body weights
p-CREB and p-STAT1 levels in tumor-infiltrating CD8+ T cells ([4]; B16F10 tumors from syngeneic mice fed on TVA): Increased p-CREB and p-STAT1 levels
CD4+ T cell population in TILs ([4]; TVA diet, B16F10 tumors): not altered
tumor-infiltrating populations of neutrophils and monocytes ([4]; TVA diet, B16F10 tumors): markedly increases tumor-infiltrating populations of neutrophils and monocytes
conventional CD4+ T cell or CD4+Foxp3+ Treg cell populations ([4]; TVA diet, spleens, dLNs and tumors of B16F10 tumor-bearing mice): has no effects on conventional CD4^+ T cell
cytokine expression in tumor-infiltrating CD8+ T cells ([4]; dietary TVA, B16F10 tumors): increased expression levels of cytokines including IL-2, TNF-α, and IFN-γ
exhaustion of CD8+ T cells (PD-1 and LAG-3 expression) ([4]; dietary TVA, tumors and spleens, not dLNs): reduces exhaustion of CD8^+ T cells in tumors and spleens
CD8+ T cell population in tumor-infiltrating lymphocytes (TILs) ([4]; enriched diet, B16F10 tumors): increased CD8^+ T cell population
